Assay results: patent US20040106802A1, “Novel compounds and therapeutic uses thereof” (TORRENT PHARMACEUTICALS LTD., priority 2002, published 2004)
Where a name gives a salt, the structure may show the parent alone.

Experiments:
Porcine DPP-IV = target: T1, Porcine DPP-IV (Sus scrofa, UniProt P22411); assay: Assay of DPP-IV enzyme inhibitory activity (spectrophotometric, Gly-Pro-pNA cleavage); type: biochemical; settings: Porcine DPP-IV, Gly-Pro-pNA substrate, 30° C.; mean ± SD of three experiments except compound Nos. 133 & 139; read-out: IC50 (μM) Mean ± SD, inhibitory activity on DPP-IV enzyme activity
T1 construct: purchased Sigma-Aldrich Germany

[1] = In-vitro free radical scavenging activity using DPPH free radical; settings: 30° C., 30 minutes, 515 nm
From the text: Free Radical Scavenging Activity:
To determine the in-vitro free radical scavenging activity of compounds of general formula-I on 2,2,-diphenyl-1-picrylhydrazyl (DPPH)radical (Ref: W. Brand-Williams, M. E. Cuvelier, C. Berset “Use of a free radical method to evaluate antioxidant activity”, Lebensm.- Wiss.u.Technol.,1995,28,Nr.1:25-30).
To evaluate the free radical scavenging activity of compounds they are allowed to react with stable radical DPPH*. In its radical form, DPPH* absorbed at the characteristic wave length of 515 nm, but upon reduction by an antioxidant or radical scavenger (AH), the absorption disappears.
10^−4M solution of DPPH* was prepared in methanol.
Various concentrations (10 mM, 1 mM, 0.5 mM, 0.25 mM and 0.125 mM) of drug solutions were prepared in methanol.
900 μl of DPPH radical solution was added to an eppendorf tube. To it was added 100 μl of methanol.
900 μl of DPPH radical solution was added to an eppendorf tube. To it was added 100 μl of various concentrations of drug solutions in methanol.
The absorbance of control and test samples was recorded after incubation at 30° C. for 30 minutes, at 515 nm taking methanol as blank.
The percent antioxidant activity was calculated according to the formula:
% Antioxidant activity=100−[O.D of test sample/O.D of control*100]

T1 sequence (P22411 whole entry): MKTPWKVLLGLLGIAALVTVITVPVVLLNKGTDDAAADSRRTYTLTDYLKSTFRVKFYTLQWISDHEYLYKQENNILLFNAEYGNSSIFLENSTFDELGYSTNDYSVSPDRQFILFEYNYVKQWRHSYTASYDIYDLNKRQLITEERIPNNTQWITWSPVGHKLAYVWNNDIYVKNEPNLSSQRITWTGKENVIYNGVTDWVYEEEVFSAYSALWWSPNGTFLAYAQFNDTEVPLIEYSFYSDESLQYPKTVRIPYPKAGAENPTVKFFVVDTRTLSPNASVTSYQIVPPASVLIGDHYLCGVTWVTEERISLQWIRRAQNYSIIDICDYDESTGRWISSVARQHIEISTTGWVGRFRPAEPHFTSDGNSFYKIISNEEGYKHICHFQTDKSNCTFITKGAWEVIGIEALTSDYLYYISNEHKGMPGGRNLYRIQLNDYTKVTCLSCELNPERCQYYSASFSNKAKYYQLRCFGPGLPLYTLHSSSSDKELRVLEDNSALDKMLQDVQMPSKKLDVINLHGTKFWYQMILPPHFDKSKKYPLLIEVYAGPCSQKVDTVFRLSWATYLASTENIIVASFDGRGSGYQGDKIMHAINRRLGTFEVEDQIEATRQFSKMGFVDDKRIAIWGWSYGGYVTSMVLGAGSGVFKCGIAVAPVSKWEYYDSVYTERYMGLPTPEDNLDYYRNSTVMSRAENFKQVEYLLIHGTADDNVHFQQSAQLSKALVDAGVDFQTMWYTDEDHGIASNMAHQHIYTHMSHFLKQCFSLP

| SMILES | IC50 (Porcine DPP-IV) | % Activity (antioxidant, DPPH) ([1]; Concentration 100 μM) | % Activity (antioxidant, DPPH) ([1]; Concentration 12.5 μM) | % Activity (antioxidant, DPPH) ([1]; Concentration 25 μM) | % Activity (antioxidant, DPPH) ([1]; Concentration 50 μM) | % Activity (antioxidant, DPPH) ([1]; Concentration 12.5 μM, 12.5 µM) | % Activity (antioxidant, DPPH) ([1]; Concentration 25 μM, 25 µM) | % Activity (antioxidant, DPPH) ([1]; Concentration 50 μM, 50 µM) | % Activity (antioxidant, DPPH) ([1]; Concentration 100 μM, 100 µM) |
| --- | --- | --- | --- | --- | --- | --- | --- | --- | --- |
| N#CC1CSCN1C(=O)CN(N)C1CCN(CC(=O)Nc2ncc(Br)s2)CC1 (stereo not shown) [compound 117, 3-[1-oxo-2-(1-(1-(2-oxo-2-(5-bromothiazol-2-yl)aminoethyl)piperidine-4-yl))hydrazino]ethyl-4-cyanothiazolidine, tris-trifluoroacetate] | 0.226 ± 0.005 µM | 53.44% | – | – | – | – | – | – | – |
| CCNN(CC(=O)N1CSCC1C#N)C1CCN(CC(=O)Nc2ccc(Cl)cn2)CC1 (stereo not shown) [Compound No. 101, 3-[1-oxo-2-[1-(1-(2-oxo-2-(5-chloropyridin-2-yl)aminoethyl)piperidin-4-yl)]-2 ethylhydrazino]ethyl-4-cyanothiazolidine tris-hydrochloride] | 0.488 ± 0.017 µM | 61.15% | 20.41% | 31.00% | 32.19% | – | – | – | – |
| CS(=O)(=O)N1CCC(N(N)CC(=O)N2CSCC2C#N)CC1.O=C(O)C(F)(F)F (stereo not shown) [Compound No. 86, 3-[1-oxo-2-[1-(1-(methylsulphonyl)-piperidin-4-yl)]hydrazino]ethyl-4-cyanothiazolidine trifluoroacetate] | 1.46 ± 0.22 µM | 88.14% | 22.72% | 45.27% | 70.18% | – | – | – | – |
| CCNN(CC(=O)N1CSCC1C#N)C1CCN(S(C)(=O)=O)CC1.O=C(O)C(F)(F)F (stereo not shown) [Compound No. 88, 3-[1-oxo-2-[1-(1-(methylsulphonyl)-piperidin-4-yl)-2-ethyl]hydrazino]ethyl-4-cyanothiazolidine trifluoroacetate] | 3.75 ± 0.101 µM | 69.34% | 14.49% | 44.12% | 56.11% | – | – | – | – |
| N#CC1CSCN1C(=O)CN(N)C1CCN(C(=O)N2CCOCC2)CC1.O=C(O)C(F)(F)F (stereo not shown) [Compound No. 85, 3-[1-oxo-2-[1-(1(morpholinocarbonyl)-piperidin-4-yl)]hydrazino]ethyl-4-cyano-thiazolidine trifluoroacetate] | 0.79 ± 0.072 µM | 67.23% | 15.25% | 30.67% | 49.97% | – | – | – | – |
| CCN(C)C(=O)N1CCC(N(N)CC(=O)N2CSCC2C#N)CC1.O=C(O)C(F)(F)F (stereo not shown) [Compound No. 90, 3-[1-oxo-2-[1-(1-(N-ethylmethylaminocarbonyl)-piperidin-4-yl)]hydrazino]ethyl-4-cyanothiazolidine trifluoroacetate] | 1.23 ± 0.3 µM | 82.75% | 21.81% | 42.93% | 62.91% | – | – | – | – |
| COc1ccc(S(=O)(=O)NC2CCC(N(N)CC(=O)N3CSCC3C#N)CC2)cc1.O=C(O)C(F)(F)F (stereo not shown) [Compound No. 92, 3-[1-oxo-2-[1-(1-(4-methoxyphenylsulphonyl)aminocyclohexan-4-yl)]hydrazino]ethyl-4-cyanothiazolidine trifluoroacetate] | 1.33 ± 0.124 µM | 78.77% | 10.07% | 30.36% | 58.48% | – | – | – | – |
| CCNN(CC(=O)N1CSCC1C#N)C1CCN(C(=O)N2CCOCC2)CC1.O=C(O)C(F)(F)F (stereo not shown) [Compound No. 89, 3-[1-oxo-2-[1-(1-(morpholinocarbonyl)-piperidin-4-yl)-2-ethyl]hydrazino]ethyl-4-cyanothiazolidine trifluoroacetate] | 0.985 ± 0.086 µM | 55.07% | 10.37% | 20.74% | 36.94% | – | – | – | – |
| CC(C)(C)C(=O)NC1CCC(N(N)CC(=O)N2CSCC2C#N)CC1.O=C(O)C(F)(F)F (stereo not shown) [Compound No. 96, 3-[1-oxo-2-[1-(1-(trimethylacetamido)cyclohexan-4-yl)]hydrazino]ethyl-4-cyanothiazolidine trifluoroacetate] | 4 ± 0.144 µM | – | – | – | – | 19.11% | 34.43% | 48.83% | 63.26% |
| CC1CCC(N(N)CC(=O)N2CSCC2C#N)CC1.O=C(O)C(F)(F)F (stereo not shown) [Compound No. 25, 3-[1-Oxo-2-((1-(4-methyl)cyclohexyl)hydrazino)]ethyl-4-cyano thiazolidine trifluoroacetate] | 0.67 ± 0.03 µM | – | – | – | – | – | – | – | 95.66% |
| N#CC1CSCN1C(=O)CN(N)C1CCN(CC(=O)Nc2ccc(S(N)(=O)=O)cc2)CC1 (stereo not shown) [compound 131, 3-[1-oxo-2-(1-(1-(2-oxo-2-(4-aminosulphonylphenyl)aminoethyl)piperidin-4-yl))hydrazino]ethyl-4-cyanothiazolidine, bis-trifluoroacetate] | 0.0985 ± 0.012 µM | 57.73% | – | – | – | – | – | – | – |
| N#CC1CSCN1C(=O)CN(N)C1CCN(CC(=O)Nc2ccc3c(c2)OCO3)CC1 (stereo not shown) [compound 130, 3-[1-oxo-2-(1-(1-(2-oxo-2-(3,4-methelenedioxyphenyl)aminoethyl)piperidine-4-yl))hydrazino]ethyl-4-cyanothiazolidine, bis-trifluoroacetate] | 0.24 ± 0.025 µM | 56.37% | – | – | – | – | – | – | – |
| N#CC1CSCN1C(=O)CN(N)C1CCN(Cc2ccc(F)cc2)CC1 (stereo not shown) [Compound No. 94, 3-[1-oxo-2-[1-(1-(4-fluorobenzyl)-piperidin-4-yl)]hydrazino]ethyl-4-cyanothiazolidine bis-trifluoroacetate] | 2.23 ± 0.08 µM | 55.85% | 9.34% | 24.05% | 39.04% | – | – | – | – |
| N#CC1CSCN1C(=O)CN(N)C1CCC(NCc2ccc(F)cc2)CC1 (stereo not shown) [Compound No. 93, 3-[1-oxo-2-[1-(1-(4-fluorobenzyl)aminocyclohexan-4-yl)]hydrazino]ethyl-4-cyanothiazolidine bis-trifluoroacetate] | 5.56 ± 0.18 µM | 64.24% | 15.18% | 28.08% | 44.13% | – | – | – | – |
